Assay results published in paper PMC11480411, “Mucosal sugars delineate pyrazine vs pyrazinone autoinducer signaling in Klebsiella oxytoca” (Nature Communications, 2024).

System: leup operon (leupeptin BGC) promoter in K. oxytoca ATCC 8724
Assay: GFP-based transcriptional reporter for the leup operon
Type: cell-based, Klebsiella oxytoca
Settings: carbohydrate screen, M9 + casamino acid + 0.4% indicated sugar, 30 °C, 24 h; for GFP fluorescence, GFP Strain + Media: leup GFP reporter strain; for GFP fluorescence, WT + Media: wildtype K. oxytoca without reporter (background)
Excerpt: We previously examined a panel of 84 clinical K. oxytoca isolates (including recently renamed Klebsiella michiganensis isolates) for the presence of either the leup operon or npsB, an NRPS of the tilimycin/tilivalline gene cluster. […] While the roles of tilivalline and tilimycin in hemorrhagic colitis are well studied[8],[9], the operon for leupeptin biosynthesis is “silent” in K. oxytoca under typical laboratory culture conditions (i.e., leupeptin production is undetectable). Therefore, our study commenced by exploring growth conditions required to trigger leupeptin biosynthesis in K. oxytoca. To achieve this, we generated a green fluorescent protein (GFP)-based reporter system to monitor leup transcription in K. oxytoca ATCC 8724 (recently renamed as Klebsiella michiganensis (ATCC 8724), Fig. 1a). We utilized λ-red recombineering techniques[38] to replace the first biosynthetic gene (leupA) of the leupeptin BGC with a GFP-spectinomycin resistance cassette. […] Consequently, conditions that elicit transcription of the leupeptin BGC can be monitored by GFP fluorescence intensity.
5 mL of the leupeptin reporter strain was cultured aerobically in 10 g/L of LB (Becton Dickinson), yeast extract, GAM (HiMedia Laboratories), horse liver extract (HiMedia Laboratories), malt extract (VWR), meat extract (HiMedia Laboratories), YPD (Dot Scienticifc), brain heart infusion (Becton Dickinson), porcine mucin (Sigma-Aldrich, M1778), clostridial (Becton Dickinson), TSB (VWR), or casamino acid supplemented (5 g/L, VWR) M9 minimal salts (MP Biomedicals) at 30 °C for 24 h at 250 rpm. Cultures were lysed via sonication, centrifuged, and 150 µL of the supernatants were aliquoted into black well clear bottom 96 well plates. GFP fluorescence measurements were performed on a BioTek Synergy H1 plate reader with an excitation wavelength of 488 nm and an emission wavelength of 525 nm. For the carbohydrate screen, the leupeptin reporter strain was cultured in M9 minimal medium (MPbio) supplemented with casamino acid (5 g/L, VWR) and 0.4% indicated sugar aerobically at 30 °C for 24 h at 250 rpm.

SMILES | GFP fluorescence, GFP Strain + Media [RFU] | GFP fluorescence, WT + Media [RFU]
CC(C)S[C@@H]1O[C@H](CO)[C@H](O)[C@H](O)[C@H]1O [IPTG] | 9918 | 8873
OC[C@H]1O[C@@H](O[C@H]2[C@H](O)[C@@H](O)C(O)O[C@@H]2CO)[C@H](O)[C@@H](O)[C@H]1O (mixture of isomers) [Lactose] | 5276 | 4982
O=C(CO)[C@@H](O)[C@H](O)[C@H](O)CO [Fructose] | 9618 | 6828
OC[C@@H](O)[C@@H](O)[C@H](O)[C@@H](O)CO [Sorbital] | 10051 | 6226
CC(=O)N[C@H]1C(O)O[C@H](CO)[C@H](O)[C@@H]1O (stereo partly drawn) [GalNAc] | 9643 | 8779
O[C@@H]1[C@@H](O)[C@@H](O)CO[C@H]1O [Arabinose] | 9484 | 6365
